Measurements published in ChEMBL document CHEMBL3608235, “Pyrroloaryls and pyrroloheteroaryls: Inhibitors of the HIV fusion/attachment, reverse transcriptase and integrase” (Bioorg Med Chem, 2015).
≈ marks a conversion by molar mass, not a printed value.

Tests used:
[1] = Inhibition of HIV1 LTR-mediated transcription assessed as drug level causing 50% inhibition of protein/RNA complex formation incubated for 15 mins; design: species or system Human immunodeficiency virus
[2] = system: Human immunodeficiency virus 1; test: Antiviral activity against CXCR4-tropic HIV1 LAI infected in human MT2 cells by monogram phenosense entry assay; type: functional, organism-based; details: Human immunodeficiency virus 1, LAI
[3] = system: Human immunodeficiency virus 1; test: Antiviral activity against CXCR4-tropic HIV1 NL4-3 infected in human MT2 cells by monogram phenosense entry assay; type: functional, organism-based; details: Human immunodeficiency virus 1, NL4-3, MT2
[4] = system: Human immunodeficiency virus 1; test: Antiviral activity against CXCR4-tropic HIV1 MN infected in human MT2 cells by monogram phenosense entry assay; type: functional, organism-based; details: Human immunodeficiency virus 1, MN
[5] = system: Human immunodeficiency virus 1; test: Antiviral activity against CXCR4-tropic HIV1 3B infected in human MT2 cells by monogram phenosense entry assay; type: functional, organism-based; details: Human immunodeficiency virus 1, 3B
[6] = system: Human immunodeficiency virus 1; test: Antiviral activity against CCR5-tropic HIV1 JRFL infected in human PM1 cells by monogram phenosense entry assay; type: functional, organism-based; details: Human immunodeficiency virus 1, JRFL
[7] = system: Human immunodeficiency virus 1; test: Antiviral activity against CCR5-tropic HIV1 SF162 infected in human PM1 cells by monogram phenosense entry assay; type: functional, organism-based; details: Human immunodeficiency virus 1, SF162, PM1
[8] = system: Human immunodeficiency virus 1; test: Antiviral activity against CCR5-tropic HIV1 BAL infected in human PM1 cells by monogram phenosense entry assay; type: functional, organism-based; details: Human immunodeficiency virus 1, BAL
[9] = system: Human immunodeficiency virus; test: Antiviral activity against HIV; type: functional, organism-based; details: Human immunodeficiency virus 1
[10] = system: Human immunodeficiency virus 1; test: Antiviral activity against HIV1 by single-cycle antiviral assay; type: functional, organism-based
[11] = system: Human immunodeficiency virus 1; test: Antiviral activity against HIV1 by multi-cycle antiviral assay; type: functional, organism-based
[12] = system: Human immunodeficiency virus 2; test: Antiviral activity against HIV2 LAI; type: functional, organism-based; details: Human immunodeficiency virus 2, LAI
[13] = system: Human immunodeficiency virus 1; test: Antiviral activity against HIV1 SF2; type: functional, organism-based; details: Human immunodeficiency virus 1, SF2
[14] = system: Human immunodeficiency virus 1; test: Antiviral activity against HIV1 NL4-3; type: functional, organism-based; details: Human immunodeficiency virus 1, NL4-3
[15] = system: Human immunodeficiency virus 1; test: Antiviral activity against HIV1 BAL; type: functional, organism-based; details: Human immunodeficiency virus 1, BAL
[16] = system: Human immunodeficiency virus 1; test: Antiviral activity against HIV1 SF162; type: functional, organism-based; details: Human immunodeficiency virus 1, SF162
[17] = system: Human immunodeficiency virus 1; test: Antiviral activity against HIV1 JRFL; type: functional, organism-based; details: Human immunodeficiency virus 1, JRFL
[18] = system: Human immunodeficiency virus 1; test: Antiviral activity against HIV1 TLAV; type: functional, organism-based; details: Human immunodeficiency virus 1, TLAV
[19] = Toxicity against human U87-T4-CXCR4 cells; type: cell-based, U-87MG ATCC
[20] = Toxicity against human MT2 cells; type: cell-based
[21] = Toxicity against human CEMx174 5.25M7 cells; type: cell-based
[22] = Toxicity against human U373-MAGI-CXCR4-CEM cells; type: cell-based
[23] = system: Human immunodeficiency virus 1; test: Antiviral activity against HIV1 3B; type: functional, organism-based; details: Human immunodeficiency virus 1, 3B
[24] = system: Human immunodeficiency virus 1; test: Antiviral activity against HIV1 RF; type: functional, organism-based; details: Human immunodeficiency virus 1, RF
[25] = system: Human immunodeficiency virus 1; test: Antiviral activity against HIV1 3B assessed as inhibition of virus mediated cell fusion between MT2 cells and H9/HIV1 3B cells; type: functional, organism-based; details: Human immunodeficiency virus 1, 3B
[26] = system: Human immunodeficiency virus 1; test: Antiviral activity against HIV1 SF162 assessed as inhibition of virus mediated cell fusion between CEMx174 5.25M7 cells and PBMC/HIV1 SF162 cells; type: functional, organism-based; details: Human immunodeficiency virus 1, SF162, CEMx174 5.25M7
[27] = system: Human immunodeficiency virus 1; test: Antiviral activity against HIV1 93TH051 assessed as inhibition of virus mediated cell fusion between CEMx174 5.25M7 cells and PBMC/HIV1 93TH051 cells; type: functional, organism-based; details: Human immunodeficiency virus 1, 93TH051, CEMx174 5.25M7
[28] = system: Human immunodeficiency virus 1; test: Antiviral activity against HIV1 93BR020 assessed as inhibition of virus mediated cell fusion between CEMx174 5.25M7 cells and PBMC/HIV1 93BR020 cells; type: functional, organism-based; details: Human immunodeficiency virus 1, 93BR020, CEMx174 5.25M7
[29] = system: Human immunodeficiency virus 1; test: Antiviral activity against HIV1 BCF02 assessed as inhibition of virus mediated cell fusion between CEMx174 5.25M7 cells and […] cells; type: functional, organism-based; details: Human immunodeficiency virus 1, BCF02, CEMx174 5.25M7
[30] = system: Human immunodeficiency virus 1; test: Antiviral activity against HIV1 92UG029 assessed as inhibition of virus mediated cell fusion between CEMx174 5.25M7 cells and […] cells; type: functional, organism-based; details: Human immunodeficiency virus 1, 92UG029, CEMx174 5.25M7
[31] = system: Human immunodeficiency virus 1; test: Antiviral activity against HIV1 3B infected in human MT2 cells assessed as reduction in virus-induced cell death; type: functional; details: Human immunodeficiency virus 1, 3B
[32] = Cytotoxicity against human MT2 cells; type: cell-based; details: read-out: TC50 (the source's name)
[33] = molecular target: Human immunodeficiency virus type 1 reverse transcriptase (Human immunodeficiency virus 1) (UniProt Q72547); test: Inhibition of HIV1 reverse transcriptase at 330 uM
[34] = system: Human immunodeficiency virus; test: Antiviral activity against HIV by syncytial plaque assay; type: functional, organism-based; details: Human immunodeficiency virus 1
[35] = system: Human immunodeficiency virus 1; test: Antiviral activity against HIV1 by XTT assay; type: functional, organism-based
[36] = system: Human immunodeficiency virus 2; test: Antiviral activity against HIV2 by XTT assay; type: functional, organism-based
[37] = system: Human immunodeficiency virus 1; test: Antiviral activity against HIV1 infected in human MT4 cells; type: functional, organism-based; details: Human immunodeficiency virus 1, MT4

With `COc1cc2c(cc1OCCC(=O)Nc1cc(C(=O)Nc3cc(C(=O)Nc4cc(C(=O)Nc5cc(C(=O)NCCC(=N)N)n(C)c5)n(C)c4)n(C)c3)n(C)c1)N=C[C@@H]1CCCN1C2=O` as the compound, how does the AC50 [1] read?
Its AC50 is 10 µM.

For `COc1cnc(-n2cnc(C)n2)c2[nH]cc(C(=O)C(=O)N3CCN(C(=O)c4ccccc4)CC3)c12` [TEMSAVIR], which EC50 [2] is on record?
The EC50 was 0.0007 µM.

What about the EC50 [3] of the same compound?
The EC50 was 0.0022 µM.

What about the EC50 [4] of the same compound?
The EC50 was 0.0148 µM.

What about the EC50 [5] of the same compound?
The EC50 was 0.0162 µM.

And the EC50 [6]?
Its EC50 is 0.0004 µM.

And the EC50 [7]?
The EC50 was 0.0005 µM.

And the EC50 [8]?
Its EC50 is 0.0017 µM.

Which IC50 [9] does the source give for `N#Cc1cn(COC(CO)CO)c2nc(N)nc(O)c12` here?
Its IC50 is 3 µM.

What does the source list for `O=C1NC(c2cccnc2)c2c(-c3ccccc3)n[nH]c21` (configuration not stated)?
EC50 [10]: 8.2 µM; EC50 [11]: 7.5 µM

For `O=C(C(=O)N1CCN(C(=O)c2ccccc2)CC1)c1c[nH]c2cccc(F)c12`, which EC50 [12] is on record?
Its EC50 is 0.85 µM.

What about the EC50 [13] of the same compound?
The EC50 was 0.85 µM.

What about the EC50 [14] of the same compound?
Its EC50 is 0.85 µM.

What about the EC50 [15] of the same compound?
The EC50 was 0.85 µM.

And the EC50 [16]?
Its EC50 is 0.85 µM.

And the EC50 [17]?
The EC50 was 0.85 µM.

And the EC50 [18]?
The EC50 was 0.85 µM.

Which results are given for `O=C(O)c1cc(-n2cccc2)ccc1Cl`?
EC50 [13]: 4.75 µM; CC50 [19]: > 4000 µM; CC50 [20]: > 4000 µM; CC50 [21]: > 4000 µM; CC50 [22]: > 4000 µM; EC50 [23]: 2.21 µM; EC50 [24]: 3.58 µM; EC50 [25]: 29.9 µM; EC50 [26]: 93.1 µM; EC50 [27]: 57.3 µM; EC50 [28]: 10.1 µM; EC50 [29]: 46.4 µM; EC50 [30]: 29 µM

What does the source list for `O=C1[C@H](Cc2ccc(O)cc2)n2cccc2-c2ccccc2N1CCc1ccc(O)cc1`?
IC90 [31]: 0.8 µg/mL (≈ 1.88 µM); CC50 [32]: 10 µg/mL (≈ 23.6 µM)

Which inhibition [33] does the source give for `O=C1c2cnncc2C2(c3ccccc3)NCCN12` (configuration not stated) here?
Its inhibition is 36%.

Which results are given for `CN1N=C(N)c2cn([C@@H]3O[C@H](COP(=O)(O)O)[C@@H](O)[C@H]3O)c3ncnc1c23` [TRICIRIBINE PHOSPHATE]?
IC50 [34]: 0.01 µM; IC50 [35]: 0.02 µM; IC50 [36]: 0.02 µM

Which results are given for `Cc1ccc(C)n1-c1ccc(C(=O)O)c(O)c1`?
EC50 [13]: 1.86 µM; CC50 [19]: > 4000 µM; CC50 [20]: 2760 µM; CC50 [21]: 2490 µM; CC50 [22]: 1860 µM; EC50 [23]: 1.04 µM; EC50 [24]: 1.69 µM; EC50 [25]: 6.74 µM; EC50 [26]: 20.6 µM; EC50 [27]: 7.46 µM; EC50 [28]: 7.04 µM; EC50 [29]: 3.94 µM; EC50 [30]: 10.6 µM

Which AC50 [1] does the source give for `COc1cc2c(cc1OCCC(=O)Nc1cc(C(=O)Nc3cc(C(=O)NCCC(=N)N)n(C)c3)n(C)c1)N=C[C@@H]1CCCN1C2=O` here?
The AC50 was 20 µM.

With `CCOC(=O)c1cc2c3ccccc3c3ccccc3n2c1C` as the compound, how does the EC50 [37] read?
The EC50 was 100 µM.
